Results from ChEMBL document CHEMBL6182868, “Structural simplification of quaternary benzophenanthridine alkaloids generating a candidate for the treatment of non-small cell lung cancer” (Eur J Med Chem, 2025).

Legend:
[1] = test system: HeLa; experiment: Cytotoxicity against human HeLa cells incubated for 24 to 48 hrs by MTT assay; format: functional, cell-based
[2] = test system: HepG2; experiment: Cytotoxicity against human HepG2 cells incubated for 24 to 48 hrs by MTT assay; format: functional, cell-based
[3] = test system: A549; experiment: Cytotoxicity against human A549 cells incubated for 24 to 48 hrs by MTT assay; format: functional, cell-based
[4] = species on record: Homo sapiens; experiment: Inhibition of TrxR (unknown origin) assessed as remaining activity at 50 uM incubated for 2 hrs in presence of NADPH by DTNB assay relative to control
[5] = Inhibition of TrxR (unknown origin) incubated for 2 hrs in presence of NADPH by DTNB assay; design: species or system Homo sapiens
[6] = Inhibition of TrxR in human A549 cells incubated for 24 hrs by endpoint insulin reduction assay; format: cell-based

| Compound | IC50 [1] [µM] | IC50 [2] [µM] | IC50 [3] [µM] | Activity [4] [%] | IC50 [5] [µM] | IC50 [6] [µM] |
| --- | --- | --- | --- | --- | --- | --- |
| CN1Cc2ccccc2-c2ccc3ccccc3c21 | > 50 | > 50 | > 50 | 97 |  |  |
| COc1ccc2ncc3ccccc3c2c1 | > 50 | > 50 | > 50 |  | > 50 |  |
| COc1cc2ncc3ccccc3c2c(OC)c1OC | > 50 | > 50 | > 50 |  | > 50 |  |
| COc1cc2c(c(OC)c1OC)c1ccccc1c[n+]2C | 22.5 | 21.9 | 16.9 |  | > 50 |  |
| C[n+]1cc2ccccc2c2ccccc21 | 28 | 32.3 | 35.8 |  | > 50 |  |
| COc1cc2c[n+](C)c3c4cc5c(cc4ccc3c2cc1OC)OCO5 [NITIDINE CHLORIDE] | 1.7 | 1.8 | 4 |  | 38.2 | 12.2 |
| c1ccc2c(c1)cnc1ccccc12 [PHENANTHRIDINE] | > 50 | > 50 | > 50 |  | > 50 |  |
| Cc1ccc2ncc3ccccc3c2c1 | > 50 | > 50 | > 50 |  | > 50 |  |
| C[n+]1cc2c3c(ccc2c2ccc4cc5c(cc4c21)OCO5)OCO3 [SANGUINARIUM CHLORIDE] | 2.4 | 2.6 | 6.9 |  | 23 |  |
